Assay [1] concerns the target Tb-labeled inactive PDGFRβ (Homo sapiens (Human), UniProt P09619). Nature of the assay: PDGFRβ LanthaScreen Assay. To be noted: read-out: PDGFR Lantha IC50. The class given is binding.
The target of another assay is VEGFR2, unphosphorylated (Homo sapiens (Human), UniProt P35968). Nature of the assay: VEGFR ADP GLO Assay. Format: biochemical.
Sequence of VEGFR2, unphosphorylated (P35968 20-1356): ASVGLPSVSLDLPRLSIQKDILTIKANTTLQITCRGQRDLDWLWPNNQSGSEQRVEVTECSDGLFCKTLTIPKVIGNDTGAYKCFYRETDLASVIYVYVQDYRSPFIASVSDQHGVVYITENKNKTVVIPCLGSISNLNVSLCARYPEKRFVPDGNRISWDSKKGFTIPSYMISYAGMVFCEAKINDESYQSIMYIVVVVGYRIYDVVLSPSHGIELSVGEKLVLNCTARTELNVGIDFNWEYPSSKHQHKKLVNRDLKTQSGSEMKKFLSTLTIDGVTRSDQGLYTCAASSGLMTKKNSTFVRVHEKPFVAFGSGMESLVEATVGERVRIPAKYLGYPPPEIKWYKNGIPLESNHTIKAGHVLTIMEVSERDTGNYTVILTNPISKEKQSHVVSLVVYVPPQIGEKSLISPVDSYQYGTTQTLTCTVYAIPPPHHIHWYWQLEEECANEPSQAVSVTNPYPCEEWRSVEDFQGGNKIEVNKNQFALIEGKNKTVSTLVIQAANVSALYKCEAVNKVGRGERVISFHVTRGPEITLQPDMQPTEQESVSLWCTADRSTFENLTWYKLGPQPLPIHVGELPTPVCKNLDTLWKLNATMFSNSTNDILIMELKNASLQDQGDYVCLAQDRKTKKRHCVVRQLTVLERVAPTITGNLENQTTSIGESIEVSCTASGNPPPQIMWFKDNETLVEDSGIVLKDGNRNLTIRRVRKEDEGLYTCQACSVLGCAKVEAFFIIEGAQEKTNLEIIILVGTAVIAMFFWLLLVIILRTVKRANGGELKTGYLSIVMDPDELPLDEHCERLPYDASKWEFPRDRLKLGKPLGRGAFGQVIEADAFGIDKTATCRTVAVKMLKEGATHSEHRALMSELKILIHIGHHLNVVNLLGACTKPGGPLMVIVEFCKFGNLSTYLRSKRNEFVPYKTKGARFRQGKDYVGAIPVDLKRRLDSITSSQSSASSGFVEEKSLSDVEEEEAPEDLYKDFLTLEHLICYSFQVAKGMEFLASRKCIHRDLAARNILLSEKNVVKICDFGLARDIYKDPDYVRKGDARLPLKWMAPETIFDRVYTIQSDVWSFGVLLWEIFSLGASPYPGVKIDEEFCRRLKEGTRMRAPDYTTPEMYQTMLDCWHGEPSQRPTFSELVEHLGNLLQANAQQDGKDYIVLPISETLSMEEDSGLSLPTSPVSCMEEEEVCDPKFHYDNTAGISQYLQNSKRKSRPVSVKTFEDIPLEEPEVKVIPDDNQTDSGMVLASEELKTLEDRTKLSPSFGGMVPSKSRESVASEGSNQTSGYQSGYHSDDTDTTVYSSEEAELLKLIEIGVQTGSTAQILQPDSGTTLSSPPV

Sequence of Tb-labeled inactive PDGFRβ (P09619 33-1106): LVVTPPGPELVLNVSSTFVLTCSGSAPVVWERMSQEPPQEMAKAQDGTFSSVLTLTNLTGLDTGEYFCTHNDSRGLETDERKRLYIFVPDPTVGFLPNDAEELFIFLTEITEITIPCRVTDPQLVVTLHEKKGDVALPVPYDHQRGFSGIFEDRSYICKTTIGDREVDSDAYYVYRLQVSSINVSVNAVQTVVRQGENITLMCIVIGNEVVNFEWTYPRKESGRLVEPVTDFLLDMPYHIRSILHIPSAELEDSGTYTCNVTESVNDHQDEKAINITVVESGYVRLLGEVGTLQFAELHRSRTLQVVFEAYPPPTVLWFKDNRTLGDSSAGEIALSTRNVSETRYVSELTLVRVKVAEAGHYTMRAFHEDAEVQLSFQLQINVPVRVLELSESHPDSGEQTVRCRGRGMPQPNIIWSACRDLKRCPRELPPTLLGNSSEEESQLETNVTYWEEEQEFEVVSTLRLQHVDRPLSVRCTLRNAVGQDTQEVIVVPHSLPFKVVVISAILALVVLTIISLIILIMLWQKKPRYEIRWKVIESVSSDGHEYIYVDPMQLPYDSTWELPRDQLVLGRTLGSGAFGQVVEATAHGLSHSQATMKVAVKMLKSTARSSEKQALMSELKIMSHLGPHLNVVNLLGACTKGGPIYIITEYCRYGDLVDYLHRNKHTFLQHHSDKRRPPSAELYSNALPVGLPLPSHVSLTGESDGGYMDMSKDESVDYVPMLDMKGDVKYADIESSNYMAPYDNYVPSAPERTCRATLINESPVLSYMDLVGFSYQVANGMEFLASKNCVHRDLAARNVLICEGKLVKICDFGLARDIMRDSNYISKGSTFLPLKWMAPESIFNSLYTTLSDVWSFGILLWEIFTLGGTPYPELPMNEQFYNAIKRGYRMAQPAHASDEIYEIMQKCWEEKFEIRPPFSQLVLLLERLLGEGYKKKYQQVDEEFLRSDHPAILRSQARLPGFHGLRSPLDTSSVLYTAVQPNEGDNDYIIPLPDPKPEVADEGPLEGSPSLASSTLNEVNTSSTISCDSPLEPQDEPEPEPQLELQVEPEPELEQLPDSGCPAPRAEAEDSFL

For the molecule `Cc1ncc(NC(=O)CN2CC(C)(C)C2)cc1NC(=O)c1cnn2cc(-c3ccnc(N4CCOCC4)c3)sc12` [Example 284, N-(5-(2-(3,3-dimethylazetidin-1-yl)acetamido)-2-methylpyridin-3-yl)-2-(2-morpholinopyridin-4-yl)pyrazolo[5,1-b]thiazole-7-carboxamide], the IC50 in assay [1] is 2.6 nM; against VEGFR2, unphosphorylated it was > 7500 nM.
For the molecule `Cc1ncc(NC(=O)CN2CC(C)(C)C2)cc1NC(=O)c1cnn2cc(-c3cc[nH]c3)sc12` [Example 285, N-(5-(2-(3,3-dimethylazetidin-1-yl)acetamido)-2-methylpyridin-3-yl)-2-(1H-pyrrol-3-yl)pyrazolo[5,1-b]thiazole-7-carboxamide], the IC50 was 1.3 nM in assay [1] and > 7500 nM at VEGFR2, unphosphorylated.
For `Cc1ncc(NC(=O)CN2CC(C)(C)C2)cc1NC(=O)c1cnn2cc(-c3cccc4c3cnn4C)sc12` [Example 286, N-(5-(2-(3,3-dimethylazetidin-1-yl)acetamido)-2-methylpyridin-3-yl)-2-(1-methyl-1H-indazol-4-yl)pyrazolo[5,1-b]thiazole-7-carboxamide] the same measures were 1 nM and > 2500 nM.
In the same order, the values of `Cc1ncc(NC(=O)CN2CC(C)(C)C2)cc1NC(=O)c1cnn2cc(-c3c[nH]c4ccccc34)sc12` [Example 287, N-(5-(2-(3,3-dimethylazetidin-1-yl)acetamido)-2-methylpyridin-3-yl)-2-(1H-indol-3-yl)pyrazolo[5,1-b]thiazole-7-carboxamide] are 0.8 nM and 1740 nM.
For `Cc1ncc(NC(=O)CN2CC(C)(C)C2)cc1NC(=O)c1cnn2cc(-c3cnc4[nH]ncc4c3)sc12` [Example 288, N-(5-(2-(3,3-dimethylazetidin-1-yl)acetamido)-2-methylpyridin-3-yl)-2-(1H-pyrazolo[3,4-b]pyridin-5-yl)pyrazolo[5,1-b]thiazole-7-carboxamide] the same measures were 11.5 nM and > 2500 nM.
Consider `Cc1ncc(NC(=O)CN2CC(C)(C)C2)cc1NC(=O)c1cnn2cc(-c3cnn(-c4cccnc4)c3)sc12` [Example 289, N-(5-(2-(3,3-dimethylazetidin-1-yl)acetamido)-2-methylpyridin-3-yl)-2-(1-(pyridin-3-yl)-1H-pyrazol-4-yl)pyrazolo[5,1-b]thiazole-7-carboxamide], for which the IC50 in assay [1] is 7.1 nM; against VEGFR2, unphosphorylated, > 7500 nM.
In the same order, the values of `Cc1ncc(NC(=O)CN2CC(C)(C)C2)cc1NC(=O)c1cnn2cc(-c3cnn(CCO)c3)sc12` [Example 290, N-(5-(2-(3,3-dimethylazetidin-1-yl)acetamido)-2-methylpyridin-3-yl)-2-(1-(2-hydroxyethyl)-1H-pyrazol-4-yl)pyrazolo[5,1-b]thiazole-7-carboxamide] are 3.3 nM and > 7500 nM.
In the same order, the values of `Cc1ncc(NC(=O)CN2CC(C)(C)C2)cc1NC(=O)c1cnn2cc(-c3ccc(CO)o3)sc12` [Example 292, N-(5-(2-(3,3-dimethylazetidin-1-yl)acetamido)-2-methylpyridin-3-yl)-2-(5-(hydroxymethyl)furan-2-yl)pyrazolo[5,1-b]thiazole-7-carboxamide] are 2.2 nM and > 7500 nM.
In the same order, the values of `Cc1ncc(NC(=O)CN2CC(C)(C)C2)cc1NC(=O)c1cnn2cc(-c3cnn(C4CCNCC4)c3)sc12` [Example 293, N-(5-(2-(3,3-dimethylazetidin-1-yl)acetamido)-2-methylpyridin-3-yl)-2-(1-(piperidin-4-yl)-1H-pyrazol-4-yl)pyrazolo[5,1-b]thiazole-7-carboxamide] are 4.6 nM and > 7500 nM.
As to `Cc1ncc(NC(=O)CN(C)C2CCOCC2)cc1NC(=O)c1cnn2cc(-c3cnn(C4CC4)c3)sc12` [Example 294, 2-(1-cyclopropyl-1H-pyrazol-4-yl)-N-(2-methyl-5-(2-(methyl(tetrahydro-2H-pyran-4-yl)amino)acetamido)pyridin-3-yl)pyrazolo[5,1-b]thiazole-7-carboxamide], the IC50 was 5.1 nM in assay [1] and > 7500 nM at VEGFR2, unphosphorylated.
For `Cc1ncc(NC(=O)CN(C)C2CCOCC2)cc1NC(=O)c1cnn2cc(-c3cnn(C(F)F)c3)sc12` [Example 295, 2-(1-(difluoromethyl)-1H-pyrazol-4-yl)-N-(2-methyl-5-(2-(methyl(tetrahydro-2H-pyran-4-yl)amino)acetamido)pyridin-3-yl)pyrazolo[5,1-b]thiazole-7-carboxamide] the same measures were 13.5 nM and > 7500 nM.
For `Cc1ncc(NC(=O)CN(C)C2CCOCC2)cc1NC(=O)c1cnn2cc(-c3cnn(C4CCC4)c3)sc12` [Example 296, 2-(1-cyclobutyl-1H-pyrazol-4-yl)-N-(2-methyl-5-(2-(methyl(tetrahydro-2H-pyran-4-yl)amino)acetamido)pyridin-3-yl)pyrazolo[5,1-b]thiazole-7-carboxamide] the same measures were 3.7 nM and > 7500 nM.
In the same order, the values of `Cc1ncc(NC(=O)CN(C)C2CCOCC2)cc1NC(=O)c1cnn2cc(-c3cnn(C(C)C#N)c3)sc12` (stereo not drawn) [Example 297, 2-(1-(1-cyanoethyl)-1H-pyrazol-4-yl)-N-(2-methyl-5-(2-(methyl(tetrahydro-2H-pyran-4-yl)amino)acetamido)pyridin-3-yl)pyrazolo[5,1-b]thiazole-7-carboxamide] are 8.6 nM and > 7500 nM.
For `Cc1ncc(NC(=O)CN(C)C2CCOCC2)cc1NC(=O)c1cnn2cc(-c3cnn(CS(C)(=O)=O)c3)sc12` [Example 298, N-(2-methyl-5-(2-(methyl(tetrahydro-2H-pyran-4-yl)amino)acetamido)pyridin-3-yl)-2-(1-((methylsulfonyl)methyl)-1H-pyrazol-4-yl)pyrazolo[5,1-b]thiazole-7-carboxamide], the IC50 was 6.4 nM in assay [1] and > 7500 nM on VEGFR2, unphosphorylated.
In the same order, the values of `Cc1ncc(NC(=O)CN(C)C2CCOCC2)cc1NC(=O)c1cnn2cc(-c3cnn(CC#N)c3)sc12` [Example 299, 2-(1-(cyanomethyl)-1H-pyrazol-4-yl)-N-(2-methyl-5-(2-(methyl(tetrahydro-2H-pyran-4-yl)amino)acetamido)pyridin-3-yl)pyrazolo[5,1-b]thiazole-7-carboxamide] are 6 nM and > 7500 nM.
In the same order, the values of `Cc1ncc(NC(=O)CN(C)C2CCOCC2)cc1NC(=O)c1cnn2cc(-c3cnn(CC(N)=O)c3)sc12` [Example 300, 2-(1-(2-amino-2-oxoethyl)-1H-pyrazol-4-yl)-N-(2-methyl-5-(2-(methyl(tetrahydro-2H-pyran-4-yl)amino)acetamido)pyridin-3-yl)pyrazolo[5,1-b]thiazole-7-carboxamide] are 12.4 nM and > 7500 nM.
For `COc1ncccc1-c1cn2ncc(C(=O)Nc3cc(C(=O)NCCN4CCC[C@@H]4C)cnc3C)c2s1` [Example 301, (S)-2-(2-methoxypyridin-3-yl)-N-(2-methyl-5-((2-(2-methylpyrrolidin-1-yl)ethyl)carbamoyl)pyridin-3-yl)pyrazolo[5,1-b]thiazole-7-carboxamide] the same measures were 1.4 nM and > 7500 nM.
Take `Cc1ncc(NC(=O)CC23CCCN2CCC3)cc1NC(=O)c1cnn2cc(-c3cnn(C)c3)sc12` [Example 302, 2-(1-methyl-1H-pyrazol-4-yl)-N-(2-methyl-5-(2-(tetrahydro-1H-pyrrolizin-7a(5H)-yl)acetamido)pyridin-3-yl)pyrazolo[5,1-b]thiazole-7-carboxamide]: the IC50 was 61.2 nM in assay [1] and > 7500 nM against VEGFR2, unphosphorylated.
In the same order, the values of `Cc1ncc(NC(=O)CN2CCCC(O)C2)cc1NC(=O)c1cnn2cc(-c3cnn(C)c3)sc12` (stereo not drawn) [Example 303, N-(5-(2-(3-hydroxypiperidin-1-yl)acetamido)-2-methylpyridin-3-yl)-2-(1-methyl-1H-pyrazol-4-yl)pyrazolo[5,1-b]thiazole-7-carboxamide] are 5.8 nM and > 7500 nM.
In the same order, the values of `Cc1ncc(NC(=O)[C@@H]2C[C@@H](C)CN2C)cc1NC(=O)c1cnn2cc(-c3cnn(C)c3)sc12` [Example 304, N-(5-((2S,4R)-1,4-dimethylpyrrolidine-2-carboxamido)-2-methylpyridin-3-yl)-2-(1-methyl-1H-pyrazol-4-yl)pyrazolo[5,1-b]thiazole-7-carboxamide] are 5.6 nM and > 7500 nM.
For `Cc1ncc(NC(=O)C[C@@H]2CCCCN2C(C)C)cc1NC(=O)c1cnn2cc(-c3cnn(C)c3)sc12` [Example 305, (S)—N-(5-(2-(1-isopropylpiperidin-2-yl)acetamido)-2-methylpyridin-3-yl)-2-(1-methyl-1H-pyrazol-4-yl)pyrazolo[5,1-b]thiazole-7-carboxamide] the same measures were 57.8 nM and > 7500 nM.
For `Cc1ncc(NC(=O)C(C)N2CCCCCC2)cc1NC(=O)c1cnn2cc(-c3cnn(C)c3)sc12` (stereo not drawn) [Example 306, N-(5-(2-(azepan-1-yl)propanamido)-2-methylpyridin-3-yl)-2-(1-methyl-1H-pyrazol-4-yl)pyrazolo[5,1-b]thiazole-7-carboxamide], the IC50 was 9 nM in assay [1] and > 7500 nM on VEGFR2, unphosphorylated.
For `Cc1ncc(NC(=O)CC(C)N2CCCCC2)cc1NC(=O)c1cnn2cc(-c3cnn(C)c3)sc12` (stereo not drawn) [Example 307, 2-(1-methyl-1H-pyrazol-4-yl)-N-(2-methyl-5-(3-(piperidin-1-yl)butanamido)pyridin-3-yl)pyrazolo[5,1-b]thiazole-7-carboxamide] the same measures were 210 nM and > 7500 nM.
In the same order, the values of `Cc1ncc(NC(=O)[C@@H]2CCCN3CCCC[C@H]23)cc1NC(=O)c1cnn2cc(-c3cnn(C)c3)sc12` [Example 308, 2-(1-methyl-1H-pyrazol-4-yl)-N-(2-methyl-5-((1R,9aR)-octahydro-2H-quinolizine-1-carboxamido)pyridin-3-yl)pyrazolo[5,1-b]thiazole-7-carboxamide] are 710 nM and > 7500 nM.

Source of the values: patent US20240109917A1 (ACTELION PHARMACEUTICALS LTD, priority 2020, published 2024).
